Patent US10638756B2, “Molecules having pesticidal utility, and intermediates, compositions, and processes, related thereto” (Dow AgroSciences LLC, priority 2017, dated 2020)

How the values were obtained:
[1] = tested on: Beet Armyworm (Spodoptera exigua); assay: Bioassay on Beet Armyworm (BAW), 128-well diet tray assay; format: in vivo; details: for mortality at 50 µg/cm2: Spodoptera exigua, 168 h, 50 μg/cm^2 on artificial diet, second instar larvae, five to seven days, read-out: BAW % Control (or Mortality) rating
Experimental: (§1) Certain molecules disclosed in this document were tested against BAW and CL using procedures described in the following examples. In the reporting of the results, the “BAW & CL Rating Table” was used (See Table Section).
Bioassays on BAW were conducted using a 128-well diet tray assay. […] Trays were covered with a clear self-adhesive cover, vented to allow gas exchange, and held at 25° C., 14:10 light-dark for five to seven days. Percent mortality was recorded for the larvae in each well; activity in the eight wells was then averaged. The results are indicated in the table entitled “Table ABC: Biological Results” (See Table Section).

[2] = tested on: Cabbage Looper (Trichoplusia ni); assay: Bioassay on Cabbage Looper (CL), 128-well diet tray assay; format: in vivo; details: 168 h, 50 μg/cm^2 on artificial diet, second instar larvae, five to seven days, read-out: CL % Control (or Mortality) rating
Experimental: as §1
Bioassays on CL were conducted using a 128-well diet tray assay. One to five second instar CL larvae were placed in each well (3 mL) of the diet tray that had been previously filled with 1 mL of artificial diet to which 50 μg/cm^2 of the test molecule (dissolved in 50 μL of 90:10 acetone-water mixture) had been applied (to each of eight wells) and then allowed to dry. Trays were covered with a clear self-adhesive cover, vented to allow gas exchange, and held at 25° C., 14:10 light-dark for five to seven days. Percent mortality was recorded for the larvae in each well; activity in the eight wells was then averaged. The results are indicated in the table entitled “Table ABC: Biological Results” (See Table Section).

| SMILES | mortality at 50 µg/cm2 [1] | mortality at 50 µg/cm2 [2] | BAW (Table CD-2) ([1]; 0.005 μg/cm^2) | BAW (Table CD-2) ([1]; 0.05 μg/cm^2) | BAW (Table CD-2) ([1]; 0.5 μg/cm^2) | BAW (Table CD-2) ([1]; 5.0 μg/cm^2) |
| --- | --- | --- | --- | --- | --- | --- |
| O=C(NNc1ncccn1)c1ccc(/C(F)=C/C(c2ccc(Cl)c(OC(F)(F)F)c2)C(F)(F)F)cc1C(F)(F)F (centres unmarked) [F42, (Z)-4-(3-(4-Chloro-3-(trifluoromethoxy)phenyl)-1,4,4,4-tetrafluorobut-1-en-1-yl)-N′-(pyrimidin-2-yl)-2-(trifluoromethyl)benzohydrazide] | 50 to 100% | 50 to 100% | – | – | – | – |
| O=C(NNc1c(Cl)cnc(Cl)c1Cl)c1ccc(/C(F)=C/C(c2cc(Cl)c(Cl)c(Cl)c2)C(F)(F)F)cc1C(F)(F)F (centres unmarked) [F30, (Z)-4-(1,4,4,4-Tetrafluoro-3-(3,4,5-trichlorophenyl)but-1-en-1-yl)-N′-(2,3,5-trichloro-4-pyridin-4-yl)-2-(trifluoromethyl)benzohydrazide] | 50 to 100% | 50 to 100% | – | – | – | – |
| CC(C)CCN(C)NC(=O)c1ccc(/C(F)=C/C(c2cc(Cl)c(Cl)c(Cl)c2)C(F)(F)F)cc1C(F)(F)F (centres unmarked) [F160, (Z)—N′-Isopentyl-N′-methyl-4-(1,4,4,4-tetrafluoro-3-(3,4,5-trichlorophenyl)but-1-en-1-yl)-2-(trifluoromethyl)benzohydrazide] | 50 to 100% | 50 to 100% | – | – | – | – |
| O=C(NNCC1CC1)c1ccc(/C(F)=C/C(c2cc(Cl)c(Cl)c(Cl)c2)C(F)(F)F)cc1C(F)(F)F (centres unmarked) [F162, (Z)—N′-(Cyclopropylmethyl)-4-(1,4,4,4-tetrafluoro-3-(3,4,5-trichlorophenyl)but-1-en-1-yl)-2-(trifluoromethyl)benzohydrazide] | 50 to 100% | 50 to 100% | – | – | – | – |
| O=C(NNc1c(Cl)cc(C(F)(F)F)cc1Cl)c1ccc(/C(F)=C/C(c2cc(Cl)c(Cl)c(Cl)c2)C(F)(F)F)cc1C(F)(F)F (centres unmarked) [F87, (Z)—N′-(2,6-Dichloro-4-(trifluoromethyl)phenyl)-4-(1,4,4,4-tetrafluoro-3-(3,4,5-trichlorophenyl)but-1-en-1-yl)-2-(trifluoromethyl)benzohydrazide] | 0% | 0% | – | – | – | – |
| Cc1cc(O)nc(NNC(=O)c2ccc(/C(F)=C/C(c3cc(Cl)c(Cl)c(Cl)c3)C(F)(F)F)cc2C(F)(F)F)n1 (centres unmarked) [F105, (Z)—N′-(4-Hydroxy-6-methylpyrimidin-2-yl)-4-(1,4,4,4-tetrafluoro-3-(3,4,5-trichlorophenyl)but-1-en-1-yl)-2-(trifluoromethyl)benzohydrazide] | 50 to 100% | 50 to 100% | – | – | – | – |
| O=C(Nn1cnnc1)c1ccc(/C(F)=C/C(c2cc(Cl)c(Cl)c(Cl)c2)C(F)(F)F)cc1C(F)(F)F (centres unmarked) [F48, (Z)-4-(1,4,4,4-Tetrafluoro-3-(3,4,5-trichlorophenyl)but-1-en-1-yl)-N-(4H-1,2,4-triazol-4-yl)-2-(trifluoromethyl)benzamide] | 0% | 0% | – | – | – | – |
| O=C(NNc1ncccn1)c1ccc(/C(F)=C/[C@@H](c2cc(Cl)c(Cl)c(Cl)c2)C(F)(F)F)cc1C(F)(F)F (single isomer, unassigned) [F94] | 50 to 100% | 50 to 100% | 0 | 0 | 7 | 100 |
| O=C(NNc1ncccn1)c1ccc(/C(F)=C/C(c2ccc(F)c(Cl)c2)C(F)(F)F)cc1C(F)(F)F (centres unmarked) [F182, (Z)-4-(3-(3-Chloro-4-fluorophenyl)-1,4,4,4-tetrafluorobut-1-en-1-yl)-N′-(pyrimidin-2-yl)-2-(trifluoromethyl)benzohydrazide] | 50 to 100% | 50 to 100% | – | – | – | – |
| O=C(NNc1ccc(F)cc1F)c1ccc(/C(F)=C/C(c2cc(Cl)c(Cl)c(Cl)c2)C(F)(F)F)cc1C(F)(F)F (centres unmarked) [F26, (Z)—N′-(2,4-Difluorophenyl)-4-(1,4,4,4-tetrafluoro-3-(3,4,5-trichlorophenyl)but-1-en-1-yl)-2-(trifluoromethyl)benzohydrazide] | 50 to 100% | 50 to 100% | – | – | – | – |
| CN(NC(=O)c1ccc(/C(F)=C/C(c2cc(Cl)cc(Cl)c2)C(F)(F)F)cc1C(F)(F)F)c1ncccn1 (centres unmarked) [F151, (Z)-4-(3-(3,5-Dichlorophenyl)-1,4,4,4-tetrafluorobut-1-en-1-yl)-N′-methyl-N′-(pyrimidin-2-yl)-2-(trifluoromethyl)benzohydrazide] | 50 to 100% | 50 to 100% | – | – | – | – |
| N#CCN(C(=O)c1ccc(/C(F)=C/C(c2cc(Cl)c(Cl)c(Cl)c2)C(F)(F)F)cc1C(F)(F)F)N(CC#N)c1ncccn1 (centres unmarked) [F187, (Z)—N,N′-bis(cyanomethyl)-N′-(pyrimidin-2-yl)-4-(1,4,4,4-tetrafluoro-3-(3,4,5-trichlorophenyl)but-1-en-1-yl)-2-(trifluoromethyl)benzohydrazide] | 50 to 100% | 50 to 100% | – | – | – | – |
| O=C(NNc1nc(Cl)nc(Cl)n1)c1ccc(/C(F)=C/C(c2cc(Cl)c(Cl)c(Cl)c2)C(F)(F)F)cc1C(F)(F)F (centres unmarked) [F13, (Z)—N′-(4,6-Dichloro-1,3,5-triazin-2-yl)-4-(1,4,4,4-tetrafluoro-3-(3,4,5-trichlorophenyl)but-1-en-1-yl)-2-(trifluoromethyl)benzohydrazide] | 50 to 100% | 50 to 100% | – | – | – | – |
| CN(NC(=O)c1ccc(/C(F)=C/C(c2cc(Cl)c(Cl)c(Cl)c2)C(F)(F)F)cc1C(F)(F)F)c1ncc([N+](=O)[O-])cn1 (centres unmarked) [F164, (Z)—N′-Methyl-N′-(5-nitropyrimidin-2-yl)-4-(1,4,4,4-tetrafluoro-3-(3,4,5-trichlorophenyl)but-1-en-1-yl)-2-(trifluoromethyl)benzohydrazide] | 50 to 100% | 50 to 100% | – | – | – | – |
| O=C(NNc1ccccn1)c1ccc(/C(F)=C/C(c2cc(Br)c(F)c(Br)c2)C(F)(F)F)cc1C(F)(F)F (centres unmarked) [F6, (Z)-4-(3-(3,5-Dibromo-4-fluorophenyl)-1,4,4,4-tetrafluorobut-1-en-1-yl)-N′-(pyridin-2-yl)-2-(trifluoromethyl)benzohydrazide] | 50 to 100% | 50 to 100% | – | – | – | – |
| CN(NC(=O)c1ccc(/C(F)=C/C(c2cc(Cl)cc(OC(F)(F)F)c2)C(F)(F)F)cc1C(F)(F)F)c1ccccn1 (centres unmarked) [F61, (Z)-4-(3-(3-Chloro-5-(trifluoromethoxy)phenyl)-1,4,4,4-tetrafluorobut-1-en-1-yl)-N′-methyl-N′-(pyridin-2-yl)-2-(trifluoromethyl)benzohydrazide] | 50 to 100% | 50 to 100% | – | – | – | – |
| O=C(NNc1ccncc1)c1ccc(/C(F)=C/C(c2cc(Cl)c(Cl)c(Cl)c2)C(F)(F)F)cc1C(F)(F)F (centres unmarked) [F57, (Z)—N′-(Pyridin-4-yl)-4-(1,4,4,4-tetrafluoro-3-(3,4,5-trichlorophenyl)but-1-en-1-yl)-2-(trifluoromethyl)benzohydrazide] | 50 to 100% | 50 to 100% | – | – | – | – |
| CN(NC(=O)c1ccc(/C(F)=C/C(c2cc(Cl)c(Cl)c(Br)c2)C(F)(F)F)cc1C(F)(F)F)c1ncccn1 (centres unmarked) [F171, (Z)-4-(3-(3-Bromo-4,5-dichlorophenyl)-1,4,4,4-tetrafluorobut-1-en-1-yl)-N′-methyl-N′-(pyrimidin-2-yl)-2-(trifluoromethyl)benzohydrazide] | 50 to 100% | 50 to 100% | – | – | – | – |
| COc1cnc(N(C)NC(=O)c2ccc(/C(F)=C/C(c3cc(Cl)c(Cl)c(Cl)c3)C(F)(F)F)cc2C(F)(F)F)nc1 (centres unmarked) [F12, (Z)—N′-(5-Methoxypyrimidin-2-yl)-N′-methyl-4-(1,4,4,4-tetrafluoro-3-(3,4,5-trichlorophenyl)but-1-en-1-yl)-2-(trifluoromethyl)benzohydrazide] | 50 to 100% | 50 to 100% | – | – | – | – |
| COC(=O)c1scc(C)c1NNC(=O)c1ccc(/C(F)=C/C(c2cc(Cl)c(Cl)c(Cl)c2)C(F)(F)F)cc1C(F)(F)F (centres unmarked) [F15, Methyl (Z)-4-methyl-3-(2-(4-(1,4,4,4-tetrafluoro-3-(3,4,5-trichlorophenyl)but-1-en-1-yl)-2-(trifluoromethyl)benzoyl)hydrazinyl)thiophene-2-carboxylate] | 50 to 100% | 50 to 100% | – | – | – | – |
| O=C(NNC1=NCCCN1)c1ccc(/C(F)=C/C(c2cc(Cl)c(Cl)c(Cl)c2)C(F)(F)F)cc1C(F)(F)F (centres unmarked) [F27, (Z)-4-(1,4,4,4-Tetrafluoro-3-(3,4,5-trichlorophenyl)but-1-en-1-yl)-N′-(1,4,5,6-tetrahydropyrimidin-2-yl)-2-(trifluoromethyl)benzohydrazide] | 50 to 100% | 50 to 100% | – | – | – | – |
| O=C(NNc1cnccn1)c1ccc(/C(F)=C/C(c2cc(Cl)c(Cl)c(Cl)c2)C(F)(F)F)cc1C(F)(F)F (centres unmarked) [F92, (Z)—N′-(Pyrazin-2-yl)-4-(1,4,4,4-tetrafluoro-3-(3,4,5-trichlorophenyl)but-1-en-1-yl)-2-(trifluoromethyl)benzohydrazide] | 50 to 100% | 50 to 100% | – | – | – | – |
| O=C(NNc1ccc(Cl)nc1)c1ccc(/C(F)=C/C(c2cc(Cl)c(Cl)c(Cl)c2)C(F)(F)F)cc1C(F)(F)F (centres unmarked) [F136, (Z)—N′-(6-Chloropyridin-3-yl)-4-(1,4,4,4-tetrafluoro-3-(3,4,5-trichlorophenyl)but-1-en-1-yl)-2-(trifluoromethyl)benzohydrazide] | 50 to 100% | 50 to 100% | – | – | – | – |
